According to patent publication US6440451B1, “Use of crataegus formulations for prophylaxis and treatment of neoplastic diseases” (Nativia Health Products GmbH, priority 1998, dated 2002):

How the values were obtained:
HT-29 = assay: MTT assay, HT-29 colon carcinoma cells; format: cell-based, human; conditions: 72 hours
Text: (§1) In the context of the present invention, five human tumour cell lines (four carcinoma cell lines, one sarcoma cell line) and one animal carcinoma cell line (cf. tab. 2) were investigated as examples. All the cell lines were kept in permanent cell culture in cell culture bottles with 75 cm^2 base area. They were subjected to passage once a week, and the medium was changed twice a week. At the start of the experiment (day 0), the cells were sown in cell culture plates with 96 depressions (96 well plates) in 100 μl medium per well (=0.32 cm^2) in each case, with the density shown in table 2. On days 1 and 4, the medium of all the cells was changed, and after the change of medium on day 4, incubation with the active substances (Crataegus formulations, Gentiana, superoxide dismutase, 5-fluorouracil and methotrexate; see below) or the solvents as controls started immediately. The effects of the active substances were measured on day 7 (that is to say after incubation for 72 hours) with two different methods, the so-called MTT assay and the SRB assay (see tab. 2).
(§2) MTT assay: The MTT assay (T. Mossman, J. Immunoll. Methods 65 (1983) 55-63) is based on measurement of the metabolic activity of living cells. The substance 3-(4,5-dimethylthiazol-2-yl)-2,5-diphenyltetrazolium bromide (MTT), which the cells reduce intracellularly to the water-insoluble dyestuff formazan, is made available to the cells. This reduction takes place only in metabolically active cells, so that this assay detects exclusively living cells. At the measurement time, in each case 100 μl MTT solution (4 mg/ml PBS, phosphate buffered saline) are added to the cells in 100 μl medium. Incubation for two hours at 37° C. then takes place. Thereafter, the medium is sucked off, so that the dyed living cells adhering to the base of the culture flask remain. These and the dyestuff are dissolved with 100 μl DMSO (dimethylsulphoxide) in the course of 5 minutes, with vigorous shaking. The extinction is then determined photometrically at 570 nm. Its linearity in the range used here, and also its correlation to the number of living cells (counted under the microscope) were detected in preliminary experiments. […] For the evaluation, ΔE was determined by subtraction of the extinction in the controls with PBS from the measurement values with MTT.
(§3) The data shown in table 3 are the means of three individual measurements. ΔE measured under the action of the various test substances has additionally been shown in percent of ΔE of the particular solvent controls. […] At the time of addition of the test substance (day 4), the cells had already reached approx. 50% of the density, and therefore also 50% of the ΔE to be measured.

CMT-93 = assay: SRB assay, CMT-93 rectum carcinoma cells; format: cell-based, mouse; conditions: 72 hours
Text: as §1
SRB assay: The SRB assay (P. Skehan et al., J. Natl. Cancer Inst. 82 (1990) 1107-1112) is based on binding of the dyestuff sulphorhodamine B (SRB) to basic proteins. The principle specifies fixing, with the aid of trichloroacetic acid, the tumour cells adhering to the culture vessel base and thereafter dyeing their protein. This dyeing is then also determined photometrically. Non-living cells are distinguished in that they first detach themselves from the cell culture base and then dissolve in the culture medium. This method therefore also measures only the living cells in a cell culture. The cells growing in 100 μl medium are first fixed with 25 μl 50% cold trichloroacetic acid at 4° C. After incubation for one hour at 4° C., all the non-fixed constituents are removed and those which remain are rinsed five times with water. After drying in air, 200 μl 0.4% sulphorhodamine B solution in 1% acetic acid or, in the photometric controls, only acetic acid,. are added. […] The extinction was measured at 570 nm or, if the OD (optical density) lay outside the linear range, at 492 nm (for CMT-93 cells). For the evalution, ΔE was determined by subtraction of the extinction in the controls with acetic acid from the measurement values with SRB.
as §3

Caki-1 = assay: MTT assay, Caki-1 kidney carcinoma cells; format: cell-based, human; conditions: 72 hours
Text: as §1, §2, §3

SAOS-2 = assay: MTT assay, SAOS-2 osteosarcoma cells; format: cell-based, human; conditions: 72 hours
Text: as §1, §2, §3

SKMEL-2 = assay: SRB assay, SK-MEL-2 malignant melanoma cells; format: cell-based, human; conditions: for % control / dE mean: SKMEL-2, 72 hours
Text: as §1
SRB assay: The SRB assay (P. Skehan et al., J. Natl. Cancer Inst. 82 (1990) 1107-1112) is based on binding of the dyestuff sulphorhodamine B (SRB) to basic proteins. The principle specifies fixing, with the aid of trichloroacetic acid, the tumour cells adhering to the culture vessel base and thereafter dyeing their protein. This dyeing is then also determined photometrically. Non-living cells are distinguished in that they first detach themselves from the cell culture base and then dissolve in the culture medium. This method therefore also measures only the living cells in a cell culture. The cells growing in 100 μl medium are first fixed with 25 μl 50% cold trichloroacetic acid at 4° C. After incubation for one hour at 4° C., all the non-fixed constituents are removed and those which remain are rinsed five times with water. After drying in air, 200 μl 0.4% sulphorhodamine B solution in 1% acetic acid or, in the photometric controls, only acetic acid,. are added. After incubation for 30 minutes at room temperature, the dyestuff solution is poured out and the culture is rinsed four times with 1% acetic acid. After removal of the rinsing solution and drying, the dyestuff adhering to the basic proteins is dissolved in 100 μl 10 mM tris-base (tris(hydroxymethyl)aminomethane) in the course of 5 minutes. The extinction was measured at 570 nm or, if the OD (optical density) lay outside the linear range, at 492 nm (for CMT-93 cells). For the evalution, ΔE was determined by subtraction of the extinction in the controls with acetic acid from the measurement values with SRB.
The data shown in table 3 are the means of three individual measurements. ΔE measured under the action of the various test substances has additionally been shown in percent of ΔE of the particular solvent controls. The control cells, which received no test substances (Crataegus formulations) but only medium or solvent, reached 100% of their density (number) as defined at the measurement time (day 7). At the time of addition of the test substance (day 4), the cells had already reached approx. 50% of the density, and therefore also 50% of the ΔE to be measured.

U373MG = assay: SRB assay, U373MG glioblastoma cells; format: cell-based, human
Text: In the context of the present invention, five human tumour cell lines (four carcinoma cell lines, one sarcoma cell line) and one animal carcinoma cell line (cf. tab. 2) were investigated as examples. All the cell lines were kept in permanent cell culture in cell culture bottles with 75 cm^2 base area. They were subjected to passage once a week, and the medium was changed twice a week. At the start of the experiment (day 0), the cells were sown in cell culture plates with 96 depressions (96 well plates) in 100 μl medium per well (=0.32 cm^2) in each case, with the density shown in table 2. […] [table] SRB assay: The SRB assay (P. Skehan et al., J. Natl. Cancer Inst. 82 (1990) 1107-1112) is based on binding of the dyestuff sulphorhodamine B (SRB) to basic proteins. The principle specifies fixing, with the aid of trichloroacetic acid, the tumour cells adhering to the culture vessel base and thereafter dyeing their protein. This dyeing is then also determined photometrically. Non-living cells are distinguished in that they first detach themselves from the cell culture base and then dissolve in the culture medium. This method therefore also measures only the living cells in a cell culture. The cells growing in 100 μl medium are first fixed with 25 μl 50% cold trichloroacetic acid at 4° C. After incubation for one hour at 4° C., all the non-fixed constituents are removed and those which remain are rinsed five times with water. After drying in air, 200 μl 0.4% sulphorhodamine B solution in 1% acetic acid or, in the photometric controls, only acetic acid,. are added. […] For the evalution, ΔE was determined by subtraction of the extinction in the controls with acetic acid from the measurement values with SRB. The data shown in table 3 are the means of three individual measurements. ΔE measured under the action of the various test substances has additionally been shown in percent of ΔE of the particular solvent controls. […] At the time of addition of the test substance (day 4), the cells had already reached approx. 50% of the density, and therefore also 50% of the ΔE to be measured.

[1] = system: human neuroblastoma and breast carcinoma cells; conditions: Fotsis et al., Cancer Research 57 (1997); cited from earlier work
[2] = system: human fibroblasts, keratinocytes and endothelial cells; conditions: Fotsis et al., Cancer Research 57 (1997); cited from earlier work
[3] = system: tumour cell lines investigated; assay: MTT/SRB assays, statements on all tumour cell lines investigated; format: cell-based; conditions: table 3
Text: as §1, with “On days 1 and 4, the medium of all the cells was changed, and after the change of medium on day 4, incubation with the active substances (Crataegus formulations, Gentiana, superoxide dismutase, 5-fluorouracil and methotrexate; see below) or the solvents as controls started immediately.” left out
MTT assay: The MTT assay (T. Mossman, J. Immunoll. Methods 65 (1983) 55-63) is based on measurement of the metabolic activity of living cells. […] The extinction is then determined photometrically at 570 nm. Its linearity in the range used here, and also its correlation to the number of living cells (counted under the microscope) were detected in preliminary experiments. […] For the evaluation, ΔE was determined by subtraction of the extinction in the controls with PBS from the measurement values with MTT. […]

[4] = U373MG, medium, 45 μg/ml, 72 hours
[5] = solvent H2O 0.10% final conc, 1 μg/ml

Compound: O=c1[nH]cc(F)c(=O)[nH]1 [5-Fluorouracil]
- % control (HT-29; medium, 25 μg/ml): 53%
- dE mean (HT-29; medium, 25 μg/ml): 0.973
- % control (CMT-93; medium, 25 μg/ml): 63%
- dE mean (CMT-93; medium, 25 μg/ml): 0.191

Compound: CN(Cc1cnc2nc(N)nc(N)c2n1)c1ccc(C(=O)N[C@@H](CCC(=O)O)C(=O)O)cc1 [Methotrexate]
- % control (Caki-1; medium, 45 μg/ml): 47%
- dE mean (Caki-1; medium, 45 μg/ml): 0.679
- % control (SAOS-2; medium, 45 μg/ml): 41%
- dE mean (SAOS-2; medium, 45 μg/ml): 0.259
- % control (SKMEL-2; medium, 45 μg/ml): 119%
- dE mean (SKMEL-2; medium, 45 μg/ml): 2.429
- cytostatic/cytotoxic action on SKMEL-2 cells, in words (SKMEL-2; table 3): resistance
- % control (U373MG; [4]): 135%
- dE mean (U373MG; [4]): 1.449
- cytostatic/cytotoxic action on U373MG cells, in words (U373MG; table 3): resistance

Compound: O=c1cc(-c2ccc(O)c(O)c2)oc2cc(O[C@@H]3O[C@H](CO)[C@@H](O)[C@H](O)[C@H]3O)cc(O)c12 [luteolin-7-glucoside]
- effect on proliferation of human neuroblastoma and breast carcinoma cells [1]: inhibiting effect
- effect on proliferation of human fibroblasts, keratinocytes and endothelial cells [2]: inhibits the proliferation

Compound: O=c1c(O)c(-c2ccc(O)c(O)c2)oc2cc(O)cc(O)c12 [quercetin]
- effect on proliferation of human neuroblastoma and breast carcinoma cells [1]: inhibiting effect
- effect on proliferation of human fibroblasts, keratinocytes and endothelial cells [2]: inhibits the proliferation

Compound: Superoxide dismutase: Superoxide dismutase from bovine erythrocytes, superoxide scavenger comparison
- % control (HT-29; [5]): 90%
- dE mean (HT-29; [5]): 1.725
- % control (Caki-1; [5]): 97%
- dE mean (Caki-1; [5]): 1.442
- % control (SAOS-2; [5]): 98%
- dE mean (SAOS-2; [5]): 0.564
- % control (CMT-93; [5]): 92%
- dE mean (CMT-93; [5]): 0.326
- % control (SKMEL-2; [5]): 94%
- dE mean (SKMEL-2; [5]): 1.340
- cytostatic/cytotoxic action on the cell lines investigated, in words [3]: no cytostatic or cytotoxic effects
